One may read the IC50 as the concentration needed to halve the response being measured. A lower IC50 goes with greater potency.

This assay deals with T1, TcGLIP (MBP-TcGLIP) (Tanacetum cinerariifolium, UniProt H6U1I8).
T1 sequence (H6U1I8 28-365): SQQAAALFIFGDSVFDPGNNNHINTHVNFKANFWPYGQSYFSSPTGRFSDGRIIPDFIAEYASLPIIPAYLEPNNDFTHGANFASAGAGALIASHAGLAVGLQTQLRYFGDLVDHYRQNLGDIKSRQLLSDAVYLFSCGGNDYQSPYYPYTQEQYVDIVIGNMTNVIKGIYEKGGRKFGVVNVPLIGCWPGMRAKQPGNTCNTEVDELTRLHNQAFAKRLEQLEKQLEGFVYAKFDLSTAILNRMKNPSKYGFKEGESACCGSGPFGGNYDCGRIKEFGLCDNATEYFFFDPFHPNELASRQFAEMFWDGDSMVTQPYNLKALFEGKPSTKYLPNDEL
Description: HPLC.
Regarding `C=C/C=C\CC1=C(C)[C@@H](O[P@@](=O)(CCCCC)Oc2ccc([N+](=O)[O-])cc2)CC1=O` [1a], the IC50 is 0.0234 µM. The figure for `C=C/C=C\CC1=C(C)[C@@H](O[P@](=O)(CCCCC)Oc2ccc([N+](=O)[O-])cc2)CC1=O` [1b] is 0.245 µM.

With `C/C=C\CC1=C(C)[C@@H](O[P@@](=O)(CCCCC)Oc2ccc([N+](=O)[O-])cc2)CC1=O` [2a, (S)p, (S)c-2-Methyl-4-oxo-3-((Z)-2-buten-1-yl)cyclopent-2-en-1-yl 4-Nitrophenyl n-Pentylphosphonate], the IC50 was 0.0295 µM. As for `C/C=C\CC1=C(C)[C@@H](O[P@](=O)(CCCCC)Oc2ccc([N+](=O)[O-])cc2)CC1=O` [2b, (R)p, (S)c-2-Methyl-4-oxo-3-((Z)-2-buten-1-yl)cyclopent-2-en-1-yl 4-Nitrophenyl n-Pentylphosphonate], the half-maximal inhibitory concentration (IC50) was 0.347 µM. Next, `CC/C=C\CC1=C(C)[C@@H](O[P@@](=O)(CCCCC)Oc2ccc([N+](=O)[O-])cc2)CC1=O` [3a, (S)p, (S)c-2-Methyl-4-oxo-3-((Z)-2-penten-1-yl)cyclopent-2-en-1-yl 4-Nitrophenyl n-Pentylphosphonate]: 0.0407 µM; `CC/C=C\CC1=C(C)[C@@H](O[P@](=O)(CCCCC)Oc2ccc([N+](=O)[O-])cc2)CC1=O` [3b, (R)p, (S)c-2-Methyl-4-oxo-3-((Z)-2-penten-1-yl)cyclopent-2-en-1-yl 4-Nitrophenyl n-Pentylphosphonate]: 0.316 µM.

In turn, `C=C/C=C\CC1=C(C)[C@@H](O[P@@](=O)(CCCCCCCC)Oc2ccc([N+](=O)[O-])cc2)CC1=O` [4a] had a 50% inhibitory concentration (IC50) of 0.0692 µM.

With `C=C/C=C\CC1=C(C)[C@@H](O[P@](=O)(CCCCCCCC)Oc2ccc([N+](=O)[O-])cc2)CC1=O` [4b], the half-maximal inhibitory concentration (IC50) was 0.0141 µM. Compound `C/C=C\CC1=C(C)[C@@H](O[P@@](=O)(CCCCCCCC)Oc2ccc([N+](=O)[O-])cc2)CC1=O` [5a, (S)p, (S) c-2-Methyl-4-oxo-3-((Z)-2-buten-1-yl)cyclopent-2-en-1-yl 4-Nitrophenyl n-Octylphosphonate] showed an IC50 of 0.12 µM. Next, `C/C=C\CC1=C(C)[C@@H](O[P@](=O)(CCCCCCCC)Oc2ccc([N+](=O)[O-])cc2)CC1=O` [5b, (R)p, (S)c-2-Methyl-4-oxo-3-((Z)-2-buten-1-yl)cyclopent-2-en-1-yl 4-Nitrophenyl n-Octylphosphonate]: 0.0275 µM; `CC/C=C\CC1=C(C)[C@@H](O[P@@](=O)(CCCCCCCC)Oc2ccc([N+](=O)[O-])cc2)CC1=O` [6a, (S)p, (S)c-2-Methyl-4-oxo-3-((Z)-2-penten-1-yl)cyclopent-2-en-1-yl 4-Nitrophenyl n-Octylphosphonate]: 0.309 µM; `CC/C=C\CC1=C(C)[C@@H](O[P@](=O)(CCCCCCCC)Oc2ccc([N+](=O)[O-])cc2)CC1=O` [6b, (R)p, (S)c-2-Methyl-4-oxo-3-((Z)-2-penten-1-yl)cyclopent-2-en-1-yl 4-Nitrophenyl n-Octylphosphonate]: 0.038 µM.

For the origin of these results see paper PMC12096242 (ACS Omega, 2025).
